From ChEMBL document CHEMBL4732079, “Design, synthesis and antitumor evaluation of new 1,8-naphthalimide derivatives targeting nuclear DNA” (Eur J Med Chem, 2021)
The source made the active and inactive calls. No cut-off for these calls is given here.

Key:
MGC-803 [1] = assay: Induction of cell cycle arrest in human MGC-803 cells assessed as accumulation of cells at G2 phase at 0.25 uM for 24 hrs (reference value: 17.61%); assay type: functional
MGC-803 [2] = assay: Induction of cell cycle arrest in human MGC-803 cells assessed as accumulation of cells at G1 phase at 0.25 uM for 24 hrs (reference value: 62.6%); assay type: functional
T-24 = assay: Antiproliferative activity against human T-24 cells by MTT assay; assay type: functional, cell-based
MGC-803 [3] = assay: Antiproliferative activity against human MGC-803 cells by MTT assay; assay type: functional, cell-based
MGC-803 [4] = assay: Antitumor activity against human MGC-803 cells xenografted in BALB/c nude mice assessed as tumor increment rate at 5 mg/kg, ip measured after 21 days relative to control; assay type: functional; conditions: time 21 day
DNA [5] = assay: Binding affinity to Escherichia coli pBR322 DNA assessed as intercalation at 10 to 100 uM by agarose gel electrophoresis assay; assay type: nucleic-acid assay; conditions: dose 10-100 µM
DNA [6] = assay: Induction of DNA damage in human MGC-803 cells assessed as increase in p-ATM levels at 0.5 to 1 uM by Western blot analysis; assay type: cell-based; conditions: dose 0.5-1 µM
DNA [7] = assay: Induction of DNA damage in human MGC-803 cells assessed as increase in Cdc25A levels at 0.5 to 1 uM by Western blot analysis; assay type: cell-based; conditions: dose 0.5-1 µM
[8] = target: T1, DNA topoisomerase 1 (Homo sapiens) (UniProt P11387); assay: Inhibition of topoisomerase 1 (unknown origin) using pBR322 DNA as substrate at 10 uM by gel electrophoresis
T1 sequence (whole entry): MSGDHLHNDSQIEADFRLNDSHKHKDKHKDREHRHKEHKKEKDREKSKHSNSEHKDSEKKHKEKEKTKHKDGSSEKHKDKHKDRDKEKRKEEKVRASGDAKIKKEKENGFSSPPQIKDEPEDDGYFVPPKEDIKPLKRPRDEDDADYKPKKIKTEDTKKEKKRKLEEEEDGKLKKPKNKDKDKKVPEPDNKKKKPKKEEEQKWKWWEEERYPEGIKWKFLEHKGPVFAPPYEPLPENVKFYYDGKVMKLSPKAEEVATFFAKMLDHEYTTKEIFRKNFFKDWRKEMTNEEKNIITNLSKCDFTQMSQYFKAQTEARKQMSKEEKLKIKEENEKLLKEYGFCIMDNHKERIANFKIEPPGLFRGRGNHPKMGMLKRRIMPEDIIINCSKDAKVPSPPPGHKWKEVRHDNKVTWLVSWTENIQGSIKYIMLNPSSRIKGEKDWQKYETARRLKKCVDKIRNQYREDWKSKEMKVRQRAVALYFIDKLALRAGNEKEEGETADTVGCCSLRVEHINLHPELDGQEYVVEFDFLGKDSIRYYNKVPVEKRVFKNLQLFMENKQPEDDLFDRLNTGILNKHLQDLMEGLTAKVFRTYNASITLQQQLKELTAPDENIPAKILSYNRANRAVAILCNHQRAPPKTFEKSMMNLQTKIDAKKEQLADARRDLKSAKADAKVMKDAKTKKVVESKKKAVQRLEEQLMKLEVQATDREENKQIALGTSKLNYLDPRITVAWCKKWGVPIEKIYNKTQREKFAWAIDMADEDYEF

MGC-803 [9] = assay: Induction of cell cycle arrest in human MGC-803 cells assessed as accumulation of cells at S phase at 0.5 uM for 24 hrs (Rvb =20.23%); assay type: functional
MGC-803 [10] = assay: Induction of cell cycle arrest in human MGC-803 cells assessed as accumulation of cells at S phase at 1 uM for 24 hrs (Rvb =20.23%); assay type: functional
MGC-803 [11] = assay: Effect on CDK2 expression in human MGC-803 cells at 0.5 to 1 uM by Western blot analysis; assay type: functional, cell-based; conditions: dose 0.5-1 µM
MGC-803 [12] = assay: Induction of apoptosis in human MGC-803 cells assessed as viable cells at 0.5 uM after 24 hrs (reference value: 93.6%); assay type: functional; conditions: read-out: Activity
MGC-803 [13] = assay: Induction of apoptosis in human MGC-803 cells assessed as viable cells at 2 uM after 24 hrs (reference value: 93.6%); assay type: functional; conditions: read-out: Activity
MGC-803 [14] = assay: Induction of apoptosis in human MGC-803 cells assessed as early apoptotic cells at 2 uM after 24 hrs (reference value: 2.9%); assay type: functional
MGC-803 [15] = assay: Induction of apoptosis in human MGC-803 cells assessed as increase in PARP expression at 0.5 to 1 uM by Western blot analysis; assay type: functional, cell-based; conditions: dose 0.5-1 µM
[16] = target: T1, DNA topoisomerase 1 (Homo sapiens); assay: Inhibition of topoisomerase 1 (unknown origin) using pBR322 DNA as substrate at 20 uM by gel electrophoresis

| Structure (SMILES) | Activity (MGC-803 [1]) [%] | Activity (MGC-803 [2]) [%] | IC50 (T-24) [nM] | IC50 (MGC-803 [3]) [nM] | T/C (MGC-803 [4]) [%] | Activity (DNA [5]) | Activity (DNA [6]) | Activity (DNA [7]) | inhibition [8] | Activity (MGC-803 [9]) [%] | Activity (MGC-803 [10]) [%] | Activity (MGC-803 [11]) | viability at 0.5 µM (MGC-803 [12]) [%] | viability at 2 µM (MGC-803 [13]) [%] | Activity (MGC-803 [14]) [%] | Activity (MGC-803 [15]) | inhibition [16] |
| --- | --- | --- | --- | --- | --- | --- | --- | --- | --- | --- | --- | --- | --- | --- | --- | --- | --- |
| CN(C)CCN1C(=O)c2cccc3c(N4CCN(C(=O)c5ccccc5)CC4)c([N+](=O)[O-])cc(c23)C1=O | 11.29 | 50.91 | 420 | 870 | 59.8 | Active | Active | Active | Active | 69.18 | 71.16 | Active | 74.9 | 41.9 | 32 | Active |  |
| Cc1ccc(S(=O)(=O)N2CCN(c3c([N+](=O)[O-])cc4c5c(cccc35)C(=O)N(CCN(C)C)C4=O)CC2)cc1 | 5.83 | 53.73 | 330 | 1420 | 52 | Active | Active | Active |  | 43.96 | 75.18 | Active | 78.5 | 66.9 | 16.8 | Active | Active |
